Measurements as given in patent US20250074891A1 (Anaxis Pharma Pty Ltd., priority 2021, published 2025).

What was measured:
Details in all cases: Table 35
MLKL (full length) = MLKL (full length) (Homo sapiens (Human), UniProt Q8NB16); test: KINOMEscan binding assay, MLKL (full length)
Description: (§1) Kinase assays. For most assays, kinase-tagged T7 phage strains were grown in parallel in 24-well blocks in an E. coli host derived from the BL21 strain. E. coli were grown to log-phase and infected with T7 phage from a frozen stock (multiplicity of infection=0.4) and incubated with shaking at 32° C. until lysis (90-150 minutes).
(§2) The Hill Slope was set to −1.

RIP1 = RIP1 (Homo sapiens (Human), UniProt Q13546); test: KINOMEscan binding assay, RIP1
Chain of RIP1 (Q13546 whole entry): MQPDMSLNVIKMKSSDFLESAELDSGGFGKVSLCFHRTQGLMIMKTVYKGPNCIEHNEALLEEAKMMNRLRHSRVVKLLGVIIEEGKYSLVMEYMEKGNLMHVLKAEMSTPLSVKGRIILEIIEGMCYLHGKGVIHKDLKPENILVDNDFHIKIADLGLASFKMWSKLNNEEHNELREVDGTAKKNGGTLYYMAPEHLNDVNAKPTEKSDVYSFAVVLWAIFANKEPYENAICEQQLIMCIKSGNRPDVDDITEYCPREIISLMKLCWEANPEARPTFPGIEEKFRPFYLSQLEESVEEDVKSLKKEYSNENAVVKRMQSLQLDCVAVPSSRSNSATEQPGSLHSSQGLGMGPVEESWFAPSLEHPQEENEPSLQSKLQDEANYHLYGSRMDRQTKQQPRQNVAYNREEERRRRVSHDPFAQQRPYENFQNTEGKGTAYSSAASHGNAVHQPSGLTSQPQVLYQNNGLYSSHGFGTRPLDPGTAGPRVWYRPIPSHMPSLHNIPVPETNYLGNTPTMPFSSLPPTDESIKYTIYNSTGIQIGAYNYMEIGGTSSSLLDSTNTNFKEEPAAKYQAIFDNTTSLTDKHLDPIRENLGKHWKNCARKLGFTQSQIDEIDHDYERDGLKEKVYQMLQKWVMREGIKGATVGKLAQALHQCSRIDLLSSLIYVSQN

RIP3 = RIP3 (Homo sapiens (Human), UniProt Q9Y572); test: KINOMEscan binding assay, RIP3
Chain of RIP3 (Q9Y572 whole entry): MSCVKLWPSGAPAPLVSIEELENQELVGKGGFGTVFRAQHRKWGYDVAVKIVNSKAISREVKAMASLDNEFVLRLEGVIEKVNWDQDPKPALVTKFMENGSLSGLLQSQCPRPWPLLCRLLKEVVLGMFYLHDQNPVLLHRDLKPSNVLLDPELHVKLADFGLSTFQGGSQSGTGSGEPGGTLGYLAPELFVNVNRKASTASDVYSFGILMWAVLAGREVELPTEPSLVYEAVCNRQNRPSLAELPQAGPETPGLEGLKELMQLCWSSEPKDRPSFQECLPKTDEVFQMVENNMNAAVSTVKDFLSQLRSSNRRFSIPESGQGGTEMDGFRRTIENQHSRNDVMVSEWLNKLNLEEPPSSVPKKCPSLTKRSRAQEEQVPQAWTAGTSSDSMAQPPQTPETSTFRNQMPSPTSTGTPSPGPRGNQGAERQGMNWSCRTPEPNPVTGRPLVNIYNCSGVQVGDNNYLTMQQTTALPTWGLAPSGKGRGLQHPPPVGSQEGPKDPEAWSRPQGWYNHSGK
Description: as §1, §2

Chain of MLKL (full length) (Q8NB16 whole entry): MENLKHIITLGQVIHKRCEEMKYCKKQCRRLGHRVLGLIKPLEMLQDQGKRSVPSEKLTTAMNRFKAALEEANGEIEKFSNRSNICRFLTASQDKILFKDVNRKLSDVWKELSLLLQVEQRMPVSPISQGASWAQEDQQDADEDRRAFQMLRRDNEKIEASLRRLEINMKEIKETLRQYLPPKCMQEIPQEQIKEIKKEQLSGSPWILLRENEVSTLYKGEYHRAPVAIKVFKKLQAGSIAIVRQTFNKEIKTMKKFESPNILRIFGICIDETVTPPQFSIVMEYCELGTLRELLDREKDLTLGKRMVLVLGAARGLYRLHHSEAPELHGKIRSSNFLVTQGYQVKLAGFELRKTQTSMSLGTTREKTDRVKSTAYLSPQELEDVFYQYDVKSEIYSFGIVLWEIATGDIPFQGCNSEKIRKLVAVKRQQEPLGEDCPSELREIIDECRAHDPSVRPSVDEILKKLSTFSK

Row | Structure (SMILES) | Kd (MLKL (full length)) [µM] | Kd (RIP1) [µM] | Kd (RIP3) [µM]
1 | CCS(=O)(=O)Nc1ccc(-c2n[nH]c(Nc3cnccn3)c2C(N)=O)cc1OCc1ccc(Cl)c(F)c1 [Compound 166, 3-(3-((4-chloro-3-fluorobenzyl)oxy)-4-(ethylsulfonamido)phenyl)-5-(pyrazin-2-ylamino)-1H-pyrazole-4-carboxamide] | < 0.01 | > 30 | > 30
2 | NC(=O)c1c(-c2ccc(NS(=O)(=O)CC(F)(F)F)c(Oc3cccc(F)c3)c2)n[nH]c1Nc1cnccn1 [Compound 167, 3-(3-(3-fluorophenoxy)-4-((2,2,2-trifluoroethyl)sulfonamido)phenyl)-5-(pyrazin-2-ylamino)-1H-pyrazole-4-carboxamide] | < 0.01 | > 30 | > 30
3 | NC(=O)c1c(-c2ccc(NS(=O)(=O)CC(F)(F)F)c(Oc3ccc(Cl)cc3)c2)n[nH]c1Nc1cnccn1 [Compound 168, 3-(3-(4-chlorophenoxy)-4-((2,2,2-trifluoroethyl)sulfonamido)phenyl)-5-(pyrazin-2-ylamino)-1H-pyrazole-4-carboxamide] | < 0.01 | > 30 | > 30
4 | NC(=O)c1c(-c2ccc(NS(=O)(=O)C3CC3)c(OCc3ccc(F)cc3)c2)n[nH]c1Nc1cnccn1 [Compound 169, 3-(4-(cyclopropanesulfonamido)-3-((4-fluorobenzyl)oxy)phenyl)-5-(pyrazin-2-ylamino)-1H-pyrazole-4-carboxamide] | < 0.01 | > 30 | > 30
5 | NC(=O)c1c(-c2ccc(NS(=O)(=O)CC(F)(F)F)c(OCc3ccc(F)cc3)c2)n[nH]c1Nc1cnccn1 [Compound 170, 3-(3-((4-fluorobenzyl)oxy)-4-((2,2,2-trifluoroethyl)sulfonamido)phenyl)-5-(pyrazin-2-ylamino)-1H-pyrazole-4-carboxamide] | < 0.01 | > 30 | > 30
6 | CCS(=O)(=O)Nc1ccc(-c2n[nH]c(Nc3cnccn3)c2C(N)=O)cc1OCc1ccc(F)cc1C [Compound 171, 3-(4-(ethylsulfonamido)-3-((4-fluoro-2-methylbenzyl)oxy)phenyl)-5-(pyrazin-2-ylamino)-1H-pyrazole-4-carboxamide] | < 0.01 | > 30 | > 30
7 | NC(=O)c1c(-c2ccc(NS(=O)(=O)CC(F)(F)F)c(OCc3ccc(F)cc3)c2)n[nH]c1Nc1cccc(C(F)F)n1 [Compound 173, 5-((6-(difluoromethyl)pyridine-2-yl)amino)-3-(3-((4-fluorobenzyl)oxy)-4-((2,2,2-trifluoroethyl)sulfonamido)phenyl)-1H-pyrazole-4-carboxamide] | < 0.01 | > 30 | > 30
8 | NC(=O)c1c(-c2ccc(NS(=O)(=O)CC(F)(F)F)c(OCc3ccc(F)c(F)c3)c2)n[nH]c1Nc1cnccn1 [Compound 175, 3-(3-((3,4-difluorobenzyl)oxy)-4-((2,2,2-trifluoroethyl)sulfonamido)phenyl)-5-(pyrazin-2-ylamino)-1H-pyrazole-4-carboxamide] | < 0.01 | > 30 | > 30
9 | NC(=O)c1c(-c2ccc(NS(=O)(=O)CC(F)(F)F)c(OCc3ccc(F)cc3)c2)n[nH]c1Nc1ccc(C(F)(F)F)nc1 [Compound 176, 3-(3-((4-fluorobenzyl)oxy)-4-((2,2,2-trifluoroethyl)sulfonamido)phenyl)-5-((6-(trifluoromethyl)pyridine-3-yl)amino)-1H-pyrazole-4-carboxamide] | < 0.01 | > 30 | > 30
10 | NC(=O)c1c(-c2ccc(NS(=O)(=O)C(F)F)c(Oc3ccc(F)cc3)c2)n[nH]c1Nc1cnccn1 [Compound 177, 3-(4-((difluoromethyl)sulfonamido)-3-(4-fluorophenoxy)phenyl)-5-(pyrazin-2-ylamino)-1H-pyrazole-4-carboxamide] | < 0.01 | > 30 | > 30
11 | NC(=O)c1c(-c2ccc(NS(=O)(=O)CC(F)F)c(OCc3ccc(F)cc3)c2)n[nH]c1Nc1cccc(C(F)(F)F)n1 [Compound 178, 3-(4-((2,2-difluoroethyl)sulfonamido)-3-((4-fluorobenzyl)oxy)phenyl)-5-((6-(trifluoromethyl)pyridine-2-yl)amino)-1H-pyrazole-4-carboxamide] | < 0.01 | > 30 | > 30
12 | CCS(=O)(=O)Nc1ccc(-c2n[nH]c(Nc3cccc(C(F)F)n3)c2C(N)=O)cc1OCc1ccc(F)cc1 [Compound 179, 5-((6-(difluoromethyl)pyridine-2-yl)amino)-3-(4-(ethylsulfonamido)-3-((4-fluorobenzyl)oxy)phenyl)-1H-pyrazole-4-carboxamide] | < 0.01 | > 30 | > 30
13 | NC(=O)c1c(-c2ccc(NS(=O)(=O)CC(F)F)c(OCc3ccc(F)cc3)c2)n[nH]c1Nc1cnccn1 [Compound 180, 3-(4-((2,2-difluoroethyl)sulfonamido)-3-((4-fluorobenzyl)oxy)phenyl)-5-(pyrazin-2-ylamino)-1H-pyrazole-4-carboxamide] | < 0.01 | > 30 | > 30
14 | Cc1cnc(Nc2[nH]nc(-c3ccc(NS(=O)(=O)CCC(F)(F)F)c(OCc4ccc(F)cc4)c3)c2C(N)=O)cn1 [Compound 183, 3-(3-((4-fluorobenzyl)oxy)-4-((3,3,3-trifluoropropyl)sulfonamido)phenyl)-5-((5-methylpyrazin-2-yl)amino)-1H-pyrazole-4-carboxamide] | < 0.01 | > 30 | > 30
15 | NC(=O)c1c(-c2ccc(NS(=O)(=O)CCC(F)(F)F)c(OCc3ccc(F)cc3)c2)n[nH]c1Nc1cnccn1 [Compound 184, 3-(3-((4-fluorobenzyl)oxy)-4-((3,3,3-trifluoropropyl)sulfonamido)phenyl)-5-(pyrazin-2-ylamino)-1H-pyrazole-4-carboxamide] | < 0.01 | > 30 | > 30
16 | CCS(=O)(=O)Nc1ccc(-c2n[nH]c(Nc3cnccn3)c2C(N)=O)cc1Oc1ccc(Cl)cc1 [Compound 185, 3-(3-(4-chlorophenoxy)-4-(ethylsulfonamido)phenyl)-5-(pyrazin-2-ylamino)-1H-pyrazole-4-carboxamide] | < 0.01 | > 30 | > 30
17 | NC(=O)c1c(-c2ccc(NS(=O)(=O)CC(F)(F)F)c(OCc3ccc(F)cc3)c2)n[nH]c1Nc1ccnc(C(F)(F)F)n1 [Compound 186, 3-(3-((4-fluorobenzyl)oxy)-4-((2,2,2-trifluoroethyl)sulfonamido)phenyl)-5-((2-(trifluoromethyl)pyrimidin-4-yl)amino)-1H-pyrazole-4-carboxamide] | < 0.01 | > 30 | > 30
18 | NC(=O)c1c(-c2ccc(NS(=O)(=O)C(F)F)c(OCc3ccc(F)cc3)c2)n[nH]c1Nc1ccc(C(F)(F)F)nc1 [Compound 188, 3-(4-((difluoromethyl)sulfonamido)-3-((4-fluorobenzyl)oxy)phenyl)-5-((6-(trifluoromethyl)pyridine-3-yl)amino)-1H-pyrazole-4-carboxamide] | < 0.01 | > 30 | > 30
19 | COc1cnc(Nc2[nH]nc(-c3ccc(NS(=O)(=O)C(F)F)c(OCc4ccc(Cl)cc4)c3)c2C(N)=O)cn1 [Compound 190, 3-(3-((4-chlorobenzyl)oxy)-4-((difluoromethyl)sulfonamido)phenyl)-5-((5-methoxypyrazin-2-yl)amino)-1H-pyrazole-4-carboxamide] | < 0.01 | > 30 | > 30
20 | COc1cnc(Nc2[nH]nc(-c3ccc(NS(=O)(=O)C(F)F)c(OCc4ccc(F)cc4)c3)c2C(N)=O)cn1 [Compound 191, 3-(4-((difluoromethyl)sulfonamido)-3-((4-fluorobenzyl)oxy)phenyl)-5-((5-methoxypyrazin-2-yl)amino)-1H-pyrazole-4-carboxamide] | < 0.01 | > 30 | > 30
21 | CCS(=O)(=O)Nc1ccc(-c2n[nH]c(Nc3cnccn3)c2C(N)=O)cc1O[C@H](C)c1ccc(F)cc1 [Compound 193, (R)-3-(4-(ethylsulfonamido)-3-(1-(4-fluorophenyl)ethoxy)phenyl)-5-(pyrazin-2-ylamino)-1H-pyrazole-4-carboxamide] | < 0.01 | > 30 | > 30
22 | CCS(=O)(=O)Nc1ccc(-c2n[nH]c(Nc3ccc(C(F)(F)F)nc3)c2C(N)=O)cc1OCc1ccc(F)cc1 [Compound 194] | < 0.01 | > 30 | > 30
23 | CCS(=O)(=O)Nc1ccc(-c2n[nH]c(Nc3ccnc(C(F)(F)F)n3)c2C(N)=O)cc1OCc1ccc(F)cc1 [Compound 195, 3-(4-(ethylsulfonamido)-3-((4-fluorobenzyl)oxy)phenyl)-5-((2-(trifluoromethyl)pyrimidin-4-yl)amino)-1H-pyrazole-4-carboxamide] | < 0.01 | > 30 | > 30
24 | CCS(=O)(=O)Nc1ccc(-c2n[nH]c(Nc3cnccn3)c2C(N)=O)c(OCc2ccc(Cl)cc2)c1 [Compound 198, 3-(2-((4-chlorobenzyl)oxy)-4-(ethylsulfonamido)phenyl)-5-(pyrazin-2-ylamino)-1H-pyrazole-4-carboxamide] | < 0.01 | > 30 | > 30
25 | CCS(=O)(=O)Nc1ccc(-c2n[nH]c(Nc3cnccn3)c2C(N)=O)cc1O[C@@H](C)c1ccc(F)cc1 [Compound 199, (S)-3-(4-(ethylsulfonamido)-3-(1-(4-fluorophenyl)ethoxy)phenyl)-5-(pyrazin-2-ylamino)-1H-pyrazole-4-carboxamide] | < 0.01 | > 30 | > 30
26 | CCS(=O)(=O)Nc1ccc(-c2n[nH]c(Nc3ccccn3)c2C(N)=O)c(OCc2ccc(F)cc2)c1 [Compound 201] | < 0.01 | > 30 | > 30
